Earlier results in patent US20090318550A1, “Emulsions comprising at least one retinoid and benzoyl peroxide” (GALDERMA RESEARCH & DEVELOPMENT, priority 2006, published 2009).
Where two headings read alike, the source gives them in different places. Blank lines part the entries; values can stand above or below the molecule they belong to.

How the values were obtained:
[1] = in presence of benzoyl peroxide formulation
[2] = for Decomposition time: 40° C.

Decomposition of the retinoid ([1]; 2 hours): 50%
Decomposition of the retinoid ([1]; 4 hours): 95%
Compound: CC1=C(/C=C/C(C)=C/C=C/C(C)=C/C(=O)O)C(C)(C)CCC1 [tretinoin]

Decomposition of the retinoid ([1]; during 24 hours): no decomposition
Compound: COc1ccc(-c2ccc3cc(C(=O)O)ccc3c2)cc1C12CC3CC(CC(C3)C1)C2 [adapalene, 6-(3-(1-adamantyl)-4-methoxyphenyl)-2-naphthoic acid]

Decomposition time ([2]; in solution in PEG 400 (0.5 mg/g)): 1.4 days
Decomposition time ([2]; in solution in ethanol): 29 days
Decomposition time ([2]; in solution in propylene glycol): 53 days
Decomposition in suspension (dispersed form) ([2]; in water and propylene glycol, storing for 90 days): not decomposed
Compound: O=C(OOC(=O)c1ccccc1)c1ccccc1 [benzoyl peroxide]
